Laboratory results: ChEMBL document CHEMBL2021794, “Synthesis, σ₁, σ₂-receptors binding affinity and antiproliferative action of new C1-substituted adamantanes” (Bioorg Med Chem, 2012)
The source made the active and inactive calls. The rule behind the calls is not given here.

Experiments:
SF-295 [1] = experiment: Cytotoxicity against human SF295 cells after 48 hrs by trypan blue assay; type: functional, cell-based
DU-145 = experiment: Growth inhibition of human DU145 cells after 48 hrs by SRB assay; type: functional; conditions: DU-145, 48 h
BXPC-3 [2] = experiment: Cell cycle arrest in human BxPC3 cells assessed as accumulation at < G1 phase at 50 uM after 24 hrs by propidium iodide staining based flow cytometry (reference value: 9%); type: functional
BXPC-3 [3] = experiment: Induction of apoptosis in human BxPC3 cells assessed as cleaved caspase-3 containing cells at 50 uM after 24 hrs by FACS analysis (reference value: 10%); type: functional
BXPC-3 [4] = experiment: Induction of apoptosis in human BxPC3 cells assessed as early apoptotic cells at 50 uM after 24 hrs by Annexin V/7-AAD staining based flow cytometry (reference value: 11%); type: functional
BXPC-3 [5] = experiment: Induction of apoptosis in human BxPC3 cells assessed as late apoptotic cells at 50 uM after 24 hrs by Annexin V/7-AAD staining based flow cytometry (reference value: 9%); type: functional
IGROV-1 [6] = experiment: Cell cycle arrest in human IGROV1 cells assessed as accumulation at G1 phase at 0.5 uM after 24 hrs by propidium iodide staining based flow cytometry (reference value: 27%); type: functional
IGROV-1 [7] = experiment: Induction of apoptosis in human IGROV1 cells assessed as total apoptotic death cells at 0.5 uM after 24 hrs by Annexin V/7-AAD staining based flow cytometry (reference value: 13%); type: functional
IGROV-1 [8] = experiment: Cell cycle arrest in human IGROV1 cells assessed as accumulation at S phase at 5 uM after 24 hrs by propidium iodide staining based flow cytometry (reference value: 29%); type: functional
IGROV-1 [9] = experiment: Cell cycle arrest in human IGROV1 cells assessed as accumulation at >G2 phase at 5 uM after 24 hrs by propidium iodide staining based flow cytometry (reference value: 21%); type: functional
IGROV-1 [10] = experiment: Cell cycle arrest in human IGROV1 cells assessed as accumulation at S phase at 15 uM after 24 hrs by propidium iodide staining based flow cytometry (reference value: 29%); type: functional
IGROV-1 [11] = experiment: Cell cycle arrest in human IGROV1 cells assessed as accumulation at G2 phase at 15 uM after 24 hrs by propidium iodide staining based flow cytometry (reference value: 19%); type: functional
IGROV-1 [12] = experiment: Induction of apoptosis in human IGROV1 cells assessed as cleaved caspase-3 containing cells at 15 uM after 24 hrs by FACS analysis (reference value: 4%); type: functional
IGROV-1 [13] = experiment: Induction of apoptosis in human IGROV1 cells assessed as healthy cells at 15 uM after 24 hrs by Annexin V/7-AAD staining based flow cytometry (reference value: 86%); type: functional
IGROV-1 [14] = experiment: Induction of apoptosis in human IGROV1 cells assessed as early apoptotic cells at 15 uM after 24 hrs by Annexin V/7-AAD staining based flow cytometry (reference value: 9%); type: functional
IGROV-1 [15] = experiment: Cytotoxicity against human IGROV1 cells at 50 uM; type: functional, cell-based
PC-3 [16] = experiment: Cell cycle arrest in human PC3 cells assessed as accumulation at G2 phase at 0.5 uM after 24 hrs by propidium iodide staining based flow cytometry (reference value: 13%); type: functional
PC-3 [17] = experiment: Induction of apoptosis in human PC3 cells assessed as healthy cells at 0.5 uM after 24 hrs by Annexin V/7-AAD staining based flow cytometry (reference value: 92%); type: functional
PC-3 [18] = experiment: Cell cycle arrest in human PC3 cells assessed as accumulation at G1 phase at 5 uM after 24 hrs by propidium iodide staining based flow cytometry (reference value: 36%); type: functional
PC-3 [19] = experiment: Induction of apoptosis in human PC3 cells assessed as late apoptotic cells at 5 uM after 24 hrs by Annexin V/7-AAD staining based flow cytometry (reference value: 2%); type: functional
PC-3 [20] = experiment: Induction of apoptosis in human PC3 cells assessed as late apoptotic cells at 15 uM after 24 hrs by Annexin V/7-AAD staining based flow cytometry (reference value: 2%); type: functional
PC-3 [21] = experiment: Cell cycle arrest in human PC3 cells assessed as accumulation at G1 phase at 50 uM after 24 hrs by propidium iodide staining based flow cytometry (reference value: 36%); type: functional
PC-3 [22] = experiment: Cell cycle arrest in human PC3 cells assessed as accumulation at S phase at 50 uM after 24 hrs by propidium iodide staining based flow cytometry (reference value: 42%); type: functional
PC-3 [23] = experiment: Induction of apoptosis in human PC3 cells assessed as late apoptotic cells at 50 uM after 24 hrs by Annexin V/7-AAD staining based flow cytometry (reference value: 2%); type: functional
IGROV-1 [24] = experiment: Growth inhibition of human IGROV1 cells after 48 hrs by SRB assay; type: functional; conditions: IGROV-1, 48 h
SF-295 [25] = experiment: Growth inhibition of human SF295 cells after 48 hrs by SRB assay; type: functional; conditions: SF-295, 48 h
NCI-H460 = experiment: Growth inhibition of human NCI-H460 cells after 48 hrs by SRB assay; type: functional; conditions: NCI-H460, 48 h
H69AR = experiment: Growth inhibition of human H69AR cells after 48 hrs by SRB assay; type: functional
HL-60(TB) = experiment: Growth inhibition of human HL-60(TB) cells after 48 hrs by SRB assay; type: functional; conditions: HL-60, 48 h
[26] = (§1) Growth inhibition of NHDF cells after 48 hrs by SRB assay; type: cell-based; conditions: human, NHDF cells
NHDF = experiment: as §1; type: cell-based; conditions: human, nhdf, 48 h
[27] = Displacement of [3H](+)1-DTG from sigma-2 receptor expressed in rat cerebral cortex membranes after 2 hrs by liquid scintillation spectroscopy; type: cell membranes, Membrane
BXPC-3 [28] = experiment: Cell cycle arrest in human BxPC3 cells assessed as accumulation at G1 phase at 0.5 uM after 24 hrs by propidium iodide staining based flow cytometry (reference value: 41%); type: functional
BXPC-3 [29] = experiment: Cell cycle arrest in human BxPC3 cells assessed as accumulation at >G2 phase at 0.5 uM after 24 hrs by propidium iodide staining based flow cytometry (reference value: 6%); type: functional
BXPC-3 [30] = experiment: Induction of apoptosis in human BxPC3 cells assessed as healthy cells at 0.5 uM after 24 hrs by Annexin V/7-AAD staining based flow cytometry (reference value: 77%); type: functional
BXPC-3 [31] = experiment: Induction of apoptosis in human BxPC3 cells assessed as early apoptotic cells at 0.5 uM after 24 hrs by Annexin V/7-AAD staining based flow cytometry (reference value: 11%); type: functional
BXPC-3 [32] = experiment: Induction of apoptosis in human BxPC3 cells assessed as late apoptotic cells at 0.5 uM after 24 hrs by Annexin V/7-AAD staining based flow cytometry (reference value: 9%); type: functional
BXPC-3 [33] = experiment: Induction of apoptosis in human BxPC3 cells assessed as late apoptotic cells at 5 uM after 24 hrs by Annexin V/7-AAD staining based flow cytometry (reference value: 9%); type: functional
[34] = read-out: LC50 (the source's name)

## CN1CCN(c2ccc(C(c3ccccc3)C34CC5CC(CC(C5)C3)C4)cc2)CC1 (stereo unspecified)
SF-295 [1]
  Activity: Active
DU-145
  GI50: 6.43 µM
  TGI: 65.5 µM
DU-145; [34]
  CC50: 100 µM
BXPC-3 [2]
  Activity: 25%
BXPC-3 [3]
  Activity: 16%
BXPC-3 [4]
  Activity: 15%
BXPC-3 [5]
  Activity: 33%
IGROV-1 [6]
  Activity: 26%
IGROV-1 [7]
  Activity: 10%
IGROV-1 [8]
  Activity: 29%
IGROV-1 [9]
  Activity: 21%
IGROV-1 [10]
  Activity: 27%
IGROV-1 [11]
  Activity: 21%
IGROV-1 [12]
  Activity: 30%
IGROV-1 [13]
  Activity: 62%
IGROV-1 [14]
  Activity: 18%
IGROV-1 [15]
  Activity: Active
PC-3 [16]
  Activity: 14%
PC-3 [17]
  Activity: 95%
PC-3 [18]
  Activity: 34%
PC-3 [19]
  Activity: 2%
PC-3 [20]
  Activity: 3%
PC-3 [21]
  Activity: 35%
PC-3 [22]
  Activity: 34%
PC-3 [23]
  Activity: 9%
IGROV-1 [24]
  GI50: 8.83 µM
  TGI: 58.5 µM
IGROV-1 [24]; [34]
  CC50: 100 µM
SF-295 [25]
  GI50: 11 µM
  TGI: 48.1 µM
SF-295 [25]; [34]
  CC50: 85.2 µM
NCI-H460
  GI50: 4.41 µM
  LC50 (concentration killing 50% of cells): 100 µM
  TGI: 7.66 µM
H69AR
  GI50: 6.04 µM
  TGI: 18.4 µM
H69AR; [34]
  CC50: 90.5 µM
HL-60(TB)
  GI50: 5.04 µM
  LC50: 78.5 µM
  TGI: 9.63 µM
[26]
  GI50 at 48 h: 5.3 µM
NHDF
  LC50: 100 µM
  TGI: 9.6 µM
[27]
  IC50: 0.0376 µM
BXPC-3 [28]
  Activity: 37%
BXPC-3 [29]
  Activity: 8%
BXPC-3 [30]
  Activity: 84%
BXPC-3 [31]
  Activity: 10%
BXPC-3 [32]
  Activity: 6%
BXPC-3 [33]
  Activity: 17%
